# Earlier results in publication PMC5501742 (Cancer discovery, 2017).
# Settings: cited from earlier work
structure (smiles),measurement,value
Nc1cc(C(F)(F)F)c(-c2cc(N3CCOCC3)nc(N3CCOCC3)n2)cn1 [Buparlisib],frequent treatment-related AEs,"rash, hyperglycemia, diarrhea, and mucositis"
